# Data reported in US9809574B2, “Isoindoline or isoquinoline compounds, a process for their preparation and pharmaceutical compositions containing them” (LES LABORATOIRES SERVIER, priority 2013, dated 2017).
# Tests used:
# [1] = target: Bcl-2 protein (histag-Bcl-2, UniProtKB P10415) (Homo sapiens (Human), UniProt P10415); assay: Inhibition of Bcl-2 by the fluorescence polarisation technique; assay type: binding; conditions: fluorescence polarisation test; incubation for 2 hours; read-out: IC50 (nM) Bcl-2 FP
# Bcl-2 protein, sequence (P10415 whole entry): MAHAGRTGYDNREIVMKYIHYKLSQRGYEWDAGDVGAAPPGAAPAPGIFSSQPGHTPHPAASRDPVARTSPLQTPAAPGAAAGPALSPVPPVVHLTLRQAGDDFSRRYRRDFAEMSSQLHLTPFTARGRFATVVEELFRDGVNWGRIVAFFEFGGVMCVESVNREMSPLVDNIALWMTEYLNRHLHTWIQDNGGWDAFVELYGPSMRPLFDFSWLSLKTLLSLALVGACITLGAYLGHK
# Text: For partial inhibitors, the percentage fluorescence polarisation inhibition for a given concentration of the test compound is indicated.
# [2] = system: RS4; 11 leukaemia cell line; assay: In vitro cytotoxicity, Microculture Tetrazolium Assay (MTT); assay type: cell-based; conditions: Homo sapiens, 11 cells exposed for 48 hours
# Method: The cytotoxicity studies were carried out on the RS4; 11 leukaemia cell line and on H146 small Cell Lung Carcinoma cell line. The cells are distributed onto microplates and exposed to the test compounds for 48 hours. The cell viability is then quantified by a colorimetric assay, the Microculture Tetrazolium Assay (Cancer Res., 1987, 47, 939-942).
Compound,IC50 [1],IC50 [2]
"Cc1c(C(=O)N(C)c2ccc(O)cc2)cc(-c2cc3c(cc2C(=O)N2Cc4ccccc4C[C@H]2CN2CCOCC2)CN(C(=O)Oc2cccc(C(=O)O)c2)CC3)n1C [Example 709, 3-(6-{4-[(4-Hydroxyphenyl)(methyl)carbamoyl]-1,5-dimethyl-1H-pyrrol-2-yl}-7-[(3S)-3-(morpholin-4-ylmethyl)-1,2,3,4-tetrahydroisoquinoline-2-carbonyl]-1,2,3,4-tetrahydroisoquinoline-2-carbonyloxy)benzoic acid]",4.8 nM,> 150 nM
"Cc1c(C(=O)N(C)c2ccc(O)cc2)cc(-c2cc3c(cc2C(=O)N2Cc4ccccc4C[C@H]2CN2CCOCC2)CN(C(=O)/C=C/c2ccc(Cl)c(Cl)c2)CC3)n1C [Example 137, 5-{2-[(2E)-3-(3,4-dichlorophenyl)prop-2-enoyl]-7-[(3S)-3-(morpholin-4-ylmethyl)-1,2,3,4-tetrahydroisoquinoline-2-carbonyl]-1,2,3,4-tetrahydroisoquinolin-6-yl}-N-(4-hydroxyphenyl)-N,1,2-trimethyl-1H-pyrrole-3-carboxamide]",9.4 nM,47 nM
"C[C@@H]1Cc2ccccc2CN1C(=O)c1cc2c(cc1-c1cc(C(=O)N(C)c3ccc(O)cc3)c3n1CCCC3)CCN(S(=O)(=O)c1ccccc1)C2 [Example 39, 3-[2-(Benzenesulfonyl)-7-[(3R)-3-methyl-1,2,3,4-tetrahydroisoquinoline-2-carbonyl]-1,2,3,4-tetrahydroisoquinolin-6-yl]-N-(4-hydroxyphenyl)-N-methyl-5,6,7,8-tetrahydroindolizine-1-carboxamide]",14 nM,106 nM
"C[C@@H]1Cc2ccccc2CN1C(=O)c1cc2c(cc1-c1cc(C(=O)N(C)c3ccc(O)cc3)c3n1CCCC3)CCN(S(=O)(=O)c1ccc3ccccc3c1)C2 [Example 41, N-(4-Hydroxyphenyl)-N-methyl-3-{7-[(3R)-3-methyl-1,2,3,4-tetrahydroisoquinoline-2-carbonyl]-2-(naphthalene-2-sulfonyl)-1,2,3,4-tetrahydroisoquinolin-6-yl}-5,6,7,8-tetrahydroindolizine-1-carboxamide]",26 nM,78 nM
"C[C@@H]1Cc2ccccc2CN1C(=O)c1cc2c(cc1-c1cc(C(=O)N(C)c3ccc(O)cc3)c3n1CCCC3)CN(CCCc1ccccc1)C2 [Example 30, N-(4-Hydroxyphenyl)-N-methyl-3-{6-[(3R)-3-methyl-1,2,3,4-tetrahydroisoquinoline-2-carbonyl]-2-(3-phenylpropyl)-2,3-dihydro-1H-isoindol-5-yl}-5,6,7,8-tetrahydroindolizine-1-carboxamide]",16 nM,119 nM
"COc1ccc(CCCN2Cc3cc(C(=O)N4Cc5ccccc5C[C@H]4C)c(-c4cc(C(=O)N(C)c5ccc(O)cc5)c(C)n4C)cc3C2)cc1 [Example 116, N-(4-Hydroxyphenyl)-5-{2-[3-(4-methoxyphenyl)propyl]-6-[(3R)-3-methyl-1,2,3,4-tetrahydroisoquinoline-2-carbonyl]-2,3-dihydro-1H-isoindol-5-yl}-N,1,2-trimethyl-1H-pyrrole-3-carboxamide]",21 nM,181 nM
"Cc1c(C(=O)N(C)c2ccc(O)cc2)cc(-c2cc3c(cc2C(=O)N2Cc4ccccc4C[C@H]2C)CN(C(=O)Oc2ccc(CCC(=O)N(C)C)cc2)CC3)n1C [Example 804, 4-[2-(Dimethylcarbamoyl)ethyl]phenyl 6-{4-[(4-hydroxyphenyl)(methyl)carbamoyl]-1,5-dimethyl-1H-pyrrol-2-yl}-7-[(3R)-3-methyl-1,2,3,4-tetrahydroisoquinoline-2-carbonyl]-1,2,3,4-tetrahydroisoquinoline-2-carboxylate]",3.6 nM,2.2 nM
